{"source": "patent US8022235B2", "about": "“Compositions of phospholipid ether boronic acids and esters and methods for their synthesis and use” (Cellectar, Inc., priority 2007, dated 2011)", "key": {"[1]": {"system": "Pancreatic c-myc and kras", "assay": "Imaging and tissue distribution, tumor model", "type": "in vivo, Spontaneous mice", "conditions": "Adenocarcinoma", "excerpt": "Imaging and tissue distribution studies performed in mouse models aimed at determining the uptake characteristics in a wide variety of tumor models are summarized in Table 1, below."}, "Lung NCI H-69 (Oat Cell)": {"system": "Lung NCI H-69 (Oat Cell)", "assay": "Imaging and tissue distribution, tumor model", "type": "in vivo, Nude Mouse", "conditions": "Adenocarcinoma"}, "[2]": {"system": "human PC-3 prostate tumor xenografts", "assay": "Scintigraphy, microPET and tissue distribution in PC-3 tumor model", "type": "in vivo, SCID mice", "conditions": "metastatic prostate tumor model, scintigraphy, FIG. 9"}, "Min Mouse Intestinal": {"system": "Min Mouse Intestinal", "assay": "Imaging and tissue distribution, tumor model; therapeutic responses at imaging doses", "type": "in vivo", "source_text": "During the course of mouse tumor uptake and retention studies with “imaging” doses (15-20 μCi/20 g mouse) of ^125I-labeled NM404, several apparent therapeutic responses have been observed (unpublished results). […] Some of these animals also lost all hair above larger mammary tumors at around 8 days after injection. Moreover, these mice also get intestinal tumors and usually suffer from intestinal bleeding resulting in severe anemia, which renders their feet white. […] Another compelling example of tumor regression is illustrated in FIG. 13. Two litter mates each received SCC1 and SCC6 xenografts in their left and right flanks, respectively. One mouse received a single injection of ^125I-NM404 (20 μCi). […] These coincidental findings were reconfirmed in two separate age-matched groups each involving more than 6 mice."}, "[3]": {"system": "A549 human non-small cell lung cancer xenografts", "assay": "Single-dose 125I-NM404 treatment, tumor volume, A549 xenografts", "type": "in vivo, SCID mice", "conditions": "unlabeled compound (control group), 10-week assessment", "source_text": "FIG. 3 illustrates antitumor effect of single-dose treatment with ^125I-125-NM404 at doses of 50 (∘), 150 (□), 250 (⋄) and 500 (∘) μCi in SCID mice bearing A549 human non-small cell lung cancer xenografts. In FIG. 3, control animals show rapidly growing tumors over the 10-week assessment period. […] Tumor volumes are stable and some tumors appear “collapsed” (the tumor surface has collapsed). Additionally, hair above the tumors fell off confirming substantial accumulation of radioactivity in these tumors.\nFIG. 4 is an image showing one of the tumor-bearing animals treated with 250 μCi of ^125I-NM404 at 4 weeks following injection. The hair above the tumor has fallen off, apparently due to the significant accumulation of radioactivity in the tumor. […] The measurement method for determining outer tumor dimensions may have underestimated tumor volume response following dosing with ^125I-NM404;\nThe inventors have previously shown that ^125I-labeled PLE analogs such as NM404 are effective in targeting tumor therapies to tumor cells following single injection and fractionated dosing. For assessment of efficacy of ^125I-NM404 treatment, assessments of tumor volume were made until 10 weeks post-injection or until no animal in the control group was alive, whatever came first. Summarizing the results, control animals show rapidly growing tumors over the 10-week assessment period. See, FIGS. 2 and 3. […] Tumor volumes are stable and the same tumors appear “collapsed” (the tumor surface has caved in). Additionally, the hair above the tumors fell off confirming substantial accumulation of radioactivity in these tumors, FIG. 4. […] (See also, for example, U.S. patent application Ser. No. 11/671,403 hereby incorporated in its entirety for all purposes.)"}, "Retinoblastoma": {"system": "Retinoblastoma", "assay": "Imaging and tissue distribution, tumor model", "type": "in vivo, Spontaneous Mouse", "conditions": "Blastoma"}}, "data": [{"smiles": "C[N+](C)(C)CCOP(=O)([O-])OCCCCCCCCCCCCCCCCCCc1ccc(I)cc1", "note": "[NM404, 18-(p-iodophenyl)-octadecyl phosphocholine]", "values": [{"measurement": "Uptake", "setting": "[1]", "result": "Yes"}, {"measurement": "Uptake", "setting": "Lung NCI H-69 (Oat Cell)", "result": "Yes"}, {"measurement": "localization in lymph node metastases", "setting": "[2]", "result": "localize in lymph node metastases"}, {"measurement": "Uptake", "setting": "Min Mouse Intestinal; Adenocarcinoma", "result": "Yes"}, {"measurement": "survival vs untreated litter mates", "setting": "Min Mouse Intestinal; after 21 days, both intestinal models", "result": "easily outlived their untreated litter mates"}, {"measurement": "feet color (anemia from intestinal bleeding)", "setting": "Min Mouse Intestinal; around 5 days after a single injection, ^125I-labeled, 15-20 μCi/20 g mouse", "result": "reverted to a pink color"}, {"measurement": "intestinal tumors remaining at dissection", "setting": "Min Mouse Intestinal; of the expected 20 or so, ^125I-labeled, 15-20 μCi/20 g mouse", "result": "only a very few, if any"}, {"measurement": "effect on tumor growth", "setting": "[3]", "result": "no substantial effect on tumor growth"}, {"measurement": "Uptake", "setting": "Retinoblastoma", "result": "Yes"}]}]}
